Values after ≈ are worked out from the molar mass of the structure shown.
System: Helicobapter pylori
Assay: Minimal inhibiting concentration (agar dilution)
Assay type: cell-based
Procedure: Substances under examination: EU11100, EU11102, EU11103, EU11104. Comparison substance: Metronidazole Solubilization of the substances: All the substances to be studied are dissolved at room temperature in DMSO. […] 10 strains of Helicobapter pylori are used of recent clinical isolation […] The sowing of the bacteria, prepared as described in the preceding test is carried out by means a "multi-point inoculator". After 48 hours incubation under the condition described in the preceding test, the plates are examined and the Minimal Inhibiting Concentration is evaluated, namely that dose corresponding to growth absence.

Compound: COc1cc(C(O)c2ncc([N+](=O)[O-])n2C)c(O)c(C(C)(C)C)c1 (centres unmarked) [EU11100, 5-nitro-1-methyl-imidazolyl-3-terbutyl-2-hydroxy-5-methoxy-phenyl-carbinol]
- MIC50 (10 strains): 0.03 µg/mL (≈ 0.0895 µM)
- MIC90 (10 strains): 0.06 µg/mL (≈ 0.179 µM)
- MIC range (10 strains): 0.015 to 0.016 µg/mL
- MIC values (in words, compared with Metronidazole): very low MIC values
- MIC (strain 1): 0.12 µg/mL (≈ 0.358 µM)
- MIC (strain 2): 0.03 µg/mL (≈ 0.0895 µM)
- MIC (strain 3): 0.03 µg/mL (≈ 0.0895 µM)
- MIC (strain 4): 0.03 µg/mL (≈ 0.0895 µM)
- MIC (strain 5): 0.015 µg/mL (≈ 0.0447 µM)
- MIC (strain 6): 0.03 µg/mL (≈ 0.0895 µM)
- MIC (strain 7): 0.06 µg/mL (≈ 0.179 µM)
- MIC (strain 8): 0.03 µg/mL (≈ 0.0895 µM)
- MIC (strain 9): 0.03 µg/mL (≈ 0.0895 µM)
- MIC (strain 10): 0.03 µg/mL (≈ 0.0895 µM)

— EP0535528A1, “Antibacterial 5-Nitro-1-methyl-imidazolyl-3-terbutyl-2-hydroxy-aryl-carbinols” (EURORESEARCH S.r.L., priority 1991, dated 1993)
